Target: Neurogenic locus notch homolog protein 1 (Homo sapiens, UniProt P46531)
Test: Inhibition of human Notch1 expressed in HEK293 cells coexpressing luciferase reporter measured after 20 hrs by steady-glo chemiluminescence assay

Sequence of Neurogenic locus notch homolog protein 1 (P46531 whole entry): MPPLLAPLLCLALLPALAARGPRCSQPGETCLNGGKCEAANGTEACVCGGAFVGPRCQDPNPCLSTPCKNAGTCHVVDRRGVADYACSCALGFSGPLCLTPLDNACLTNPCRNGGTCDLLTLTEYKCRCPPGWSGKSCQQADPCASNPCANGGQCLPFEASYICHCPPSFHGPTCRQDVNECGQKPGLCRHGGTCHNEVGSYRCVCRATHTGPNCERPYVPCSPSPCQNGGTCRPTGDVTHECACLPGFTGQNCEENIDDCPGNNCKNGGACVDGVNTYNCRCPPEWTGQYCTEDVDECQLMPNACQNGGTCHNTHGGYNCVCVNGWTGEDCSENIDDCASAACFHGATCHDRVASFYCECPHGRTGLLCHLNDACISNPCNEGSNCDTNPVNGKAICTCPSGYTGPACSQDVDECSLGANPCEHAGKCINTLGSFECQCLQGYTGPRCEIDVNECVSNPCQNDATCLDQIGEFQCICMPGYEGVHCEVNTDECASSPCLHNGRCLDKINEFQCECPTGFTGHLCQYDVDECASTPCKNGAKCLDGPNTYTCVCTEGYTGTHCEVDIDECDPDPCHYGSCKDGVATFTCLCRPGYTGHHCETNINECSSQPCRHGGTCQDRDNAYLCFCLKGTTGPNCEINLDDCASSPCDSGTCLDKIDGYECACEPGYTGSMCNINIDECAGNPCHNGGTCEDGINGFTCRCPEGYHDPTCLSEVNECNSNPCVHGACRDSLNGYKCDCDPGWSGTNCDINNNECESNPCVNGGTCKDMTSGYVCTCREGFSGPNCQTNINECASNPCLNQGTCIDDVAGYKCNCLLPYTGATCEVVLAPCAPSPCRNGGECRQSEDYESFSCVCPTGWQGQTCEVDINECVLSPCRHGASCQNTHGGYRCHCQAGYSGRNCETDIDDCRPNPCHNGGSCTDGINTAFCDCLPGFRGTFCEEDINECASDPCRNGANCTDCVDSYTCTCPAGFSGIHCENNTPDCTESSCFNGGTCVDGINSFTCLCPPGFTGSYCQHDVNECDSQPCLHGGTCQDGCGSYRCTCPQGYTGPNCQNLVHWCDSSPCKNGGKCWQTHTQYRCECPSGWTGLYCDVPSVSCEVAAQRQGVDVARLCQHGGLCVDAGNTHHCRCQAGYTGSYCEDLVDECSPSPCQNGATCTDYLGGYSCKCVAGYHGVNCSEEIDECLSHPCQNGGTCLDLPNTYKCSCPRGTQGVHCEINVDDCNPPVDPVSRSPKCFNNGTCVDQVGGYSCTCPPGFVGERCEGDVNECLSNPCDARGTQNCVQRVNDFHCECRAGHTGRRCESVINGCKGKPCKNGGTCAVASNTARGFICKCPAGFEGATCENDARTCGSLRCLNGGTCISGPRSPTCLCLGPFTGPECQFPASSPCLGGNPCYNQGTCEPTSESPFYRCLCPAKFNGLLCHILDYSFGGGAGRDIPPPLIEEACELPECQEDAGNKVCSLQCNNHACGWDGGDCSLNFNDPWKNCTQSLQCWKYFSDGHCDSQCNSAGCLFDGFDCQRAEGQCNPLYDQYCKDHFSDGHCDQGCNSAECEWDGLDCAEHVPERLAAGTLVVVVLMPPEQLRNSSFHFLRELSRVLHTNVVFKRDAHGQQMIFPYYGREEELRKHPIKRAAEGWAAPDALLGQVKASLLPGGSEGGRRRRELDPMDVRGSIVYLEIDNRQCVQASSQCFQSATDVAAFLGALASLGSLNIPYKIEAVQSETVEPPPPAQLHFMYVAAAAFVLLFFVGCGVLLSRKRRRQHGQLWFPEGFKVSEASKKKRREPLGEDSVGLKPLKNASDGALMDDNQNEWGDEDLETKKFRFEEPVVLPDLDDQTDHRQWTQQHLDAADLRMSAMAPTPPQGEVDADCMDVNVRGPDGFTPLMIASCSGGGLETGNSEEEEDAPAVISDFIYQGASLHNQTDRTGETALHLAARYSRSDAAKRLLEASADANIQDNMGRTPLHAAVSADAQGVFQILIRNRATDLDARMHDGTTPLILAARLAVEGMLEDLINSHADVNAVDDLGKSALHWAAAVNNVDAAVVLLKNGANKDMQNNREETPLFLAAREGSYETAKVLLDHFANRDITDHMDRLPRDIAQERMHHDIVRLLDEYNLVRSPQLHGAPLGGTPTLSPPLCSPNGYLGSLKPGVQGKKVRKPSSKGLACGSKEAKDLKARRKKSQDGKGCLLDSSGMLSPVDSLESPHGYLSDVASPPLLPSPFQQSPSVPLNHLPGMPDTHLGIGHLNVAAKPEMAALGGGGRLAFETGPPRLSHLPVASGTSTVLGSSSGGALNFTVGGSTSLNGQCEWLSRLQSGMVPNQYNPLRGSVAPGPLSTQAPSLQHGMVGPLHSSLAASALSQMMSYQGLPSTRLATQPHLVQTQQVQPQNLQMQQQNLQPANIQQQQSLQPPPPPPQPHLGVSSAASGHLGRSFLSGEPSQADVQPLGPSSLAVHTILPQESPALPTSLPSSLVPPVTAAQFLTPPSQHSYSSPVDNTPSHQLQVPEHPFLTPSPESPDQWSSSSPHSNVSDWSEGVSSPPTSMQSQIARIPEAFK

IC50, > 10 µM:
Cc1nnc(N2C[C@H]3CC[C@@H](C2)[C@@H]3Nc2nc3c(O[C@@H](C)C(F)(F)F)ccc(C(F)(F)F)n3n2)o1
Cc1cc(N2C[C@H]3CC[C@@H](C2)[C@@H]3Nc2nc3c(OCC(F)F)ccc(C(F)(F)F)n3n2)ncn1
Cc1noc(N2C[C@H]3CC[C@@H](C2)[C@@H]3Nc2nc3c(OCC(F)(F)F)ccc(C(F)(F)F)n3n2)n1

Reference: BindingDB's records for doi:10.1021/acs.jmedchem.0c00909 (F. Hoffmann-La Roche, 2020)
